Results as given in publication PMC10104807, “Modulation of tau tubulin kinases (TTBK1 and TTBK2) impacts ciliogenesis” (Scientific Reports, 2023).

Assays:
Experiment in all cases: DiscoverX scanMAX binding assay
PIP5K1C = biological target: T1, PIP5K1C (Homo sapiens, UniProt O60331); conditions: 1 μM
T1 construct: purchased Eurofins (radiometric) / Eurofins DiscoverX scanMAX / Reaction Biology / SignalChem
Source text: (§1) This panel includes 403 wild-type (WT) human kinases but not TTBK1/2. […] Substantial overlap between the MRC and DiscoverX scanMAX kinase panels allows the comparison of results for the same kinases in two different assay formats (enzymatic versus binding, respectively) at the same concentration. Selectivity results are included in two columns within Table 1. […] The rightmost column converts this selectivity score into the number of kinases with a PoC < 10 in the scanMAX panel.
(§2) The Eurofins DiscoverX Corporation scanMAX assay platform was employed to assess the selectivity of specific analogs at a single concentration (1 µM). As described previously, this assay platform profiles a compound against 403 wild-type human kinases and delivers percent of control (PoC) values. These percent of control values are included in Table 1 and corresponding kinome tree diagrams as well as tables for each analog included in Fig. S1.

TAOK3 = biological target: T2, TAOK3 (Homo sapiens, UniProt Q9H2K8); conditions: for TAOK3 % control at 1000nM: 1 μM
T2 construct: purchased Eurofins (radiometric) / Eurofins DiscoverX scanMAX / Reaction Biology / SignalChem
T2 sequence (Q9H2K8 1-898): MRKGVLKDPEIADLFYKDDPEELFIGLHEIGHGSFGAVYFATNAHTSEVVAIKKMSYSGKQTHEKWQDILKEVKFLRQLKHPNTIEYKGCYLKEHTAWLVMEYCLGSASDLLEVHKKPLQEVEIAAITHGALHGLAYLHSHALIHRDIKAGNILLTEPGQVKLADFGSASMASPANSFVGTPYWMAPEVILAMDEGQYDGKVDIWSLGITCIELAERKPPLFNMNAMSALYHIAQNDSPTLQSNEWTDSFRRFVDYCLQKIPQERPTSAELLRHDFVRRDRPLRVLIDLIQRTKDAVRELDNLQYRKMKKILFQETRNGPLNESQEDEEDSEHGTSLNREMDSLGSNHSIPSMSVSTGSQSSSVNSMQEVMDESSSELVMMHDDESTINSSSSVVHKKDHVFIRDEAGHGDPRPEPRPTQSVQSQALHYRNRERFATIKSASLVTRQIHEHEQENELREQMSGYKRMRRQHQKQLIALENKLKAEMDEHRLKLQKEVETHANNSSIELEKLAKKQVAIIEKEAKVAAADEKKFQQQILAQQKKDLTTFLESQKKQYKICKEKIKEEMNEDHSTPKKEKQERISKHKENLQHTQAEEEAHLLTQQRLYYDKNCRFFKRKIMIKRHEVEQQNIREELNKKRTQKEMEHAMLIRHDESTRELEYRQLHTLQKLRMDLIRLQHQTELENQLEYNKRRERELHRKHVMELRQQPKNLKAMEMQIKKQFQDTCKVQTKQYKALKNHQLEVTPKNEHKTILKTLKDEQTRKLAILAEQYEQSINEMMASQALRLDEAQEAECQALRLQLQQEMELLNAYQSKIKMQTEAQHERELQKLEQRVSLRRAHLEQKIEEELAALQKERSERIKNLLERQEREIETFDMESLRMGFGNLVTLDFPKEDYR
Source text: as §1, §2

TAOK2 = biological target: T3, TAOK2 (Homo sapiens, UniProt Q9UL54); conditions: 1 μM
T3 construct: purchased Eurofins
T3 sequence (Q9UL54 1-1235): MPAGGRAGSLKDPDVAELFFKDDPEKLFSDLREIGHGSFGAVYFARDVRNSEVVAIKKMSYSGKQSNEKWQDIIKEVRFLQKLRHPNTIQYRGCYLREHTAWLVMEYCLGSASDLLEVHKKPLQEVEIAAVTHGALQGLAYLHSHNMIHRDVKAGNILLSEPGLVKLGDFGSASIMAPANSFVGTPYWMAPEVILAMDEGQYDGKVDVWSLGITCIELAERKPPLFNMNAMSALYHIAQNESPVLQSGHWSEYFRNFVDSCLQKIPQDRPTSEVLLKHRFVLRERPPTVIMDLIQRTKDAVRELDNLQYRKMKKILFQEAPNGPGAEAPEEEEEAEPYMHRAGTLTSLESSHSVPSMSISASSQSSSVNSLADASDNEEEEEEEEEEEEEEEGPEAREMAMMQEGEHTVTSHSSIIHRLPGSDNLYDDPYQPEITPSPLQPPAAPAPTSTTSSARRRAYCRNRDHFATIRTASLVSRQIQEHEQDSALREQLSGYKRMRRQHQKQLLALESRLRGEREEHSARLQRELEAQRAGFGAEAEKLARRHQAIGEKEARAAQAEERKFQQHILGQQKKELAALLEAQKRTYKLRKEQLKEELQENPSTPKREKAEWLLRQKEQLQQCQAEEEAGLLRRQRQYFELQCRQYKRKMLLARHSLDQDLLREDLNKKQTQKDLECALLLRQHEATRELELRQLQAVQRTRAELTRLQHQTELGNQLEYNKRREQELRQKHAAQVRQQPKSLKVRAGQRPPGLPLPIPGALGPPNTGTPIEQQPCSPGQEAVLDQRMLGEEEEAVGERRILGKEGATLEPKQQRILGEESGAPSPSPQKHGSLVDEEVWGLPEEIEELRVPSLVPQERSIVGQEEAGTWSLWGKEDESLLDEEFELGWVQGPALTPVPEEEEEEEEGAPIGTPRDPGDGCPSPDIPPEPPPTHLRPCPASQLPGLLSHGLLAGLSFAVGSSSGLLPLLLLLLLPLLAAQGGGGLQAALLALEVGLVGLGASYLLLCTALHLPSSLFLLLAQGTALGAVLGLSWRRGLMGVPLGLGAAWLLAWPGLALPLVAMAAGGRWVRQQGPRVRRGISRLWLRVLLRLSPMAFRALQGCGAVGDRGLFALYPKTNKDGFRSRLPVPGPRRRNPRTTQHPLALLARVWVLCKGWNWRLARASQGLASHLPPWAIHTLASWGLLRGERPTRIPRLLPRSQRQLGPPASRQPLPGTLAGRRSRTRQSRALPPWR
Source text: as §1, §2

T1 sequence (O60331 whole entry): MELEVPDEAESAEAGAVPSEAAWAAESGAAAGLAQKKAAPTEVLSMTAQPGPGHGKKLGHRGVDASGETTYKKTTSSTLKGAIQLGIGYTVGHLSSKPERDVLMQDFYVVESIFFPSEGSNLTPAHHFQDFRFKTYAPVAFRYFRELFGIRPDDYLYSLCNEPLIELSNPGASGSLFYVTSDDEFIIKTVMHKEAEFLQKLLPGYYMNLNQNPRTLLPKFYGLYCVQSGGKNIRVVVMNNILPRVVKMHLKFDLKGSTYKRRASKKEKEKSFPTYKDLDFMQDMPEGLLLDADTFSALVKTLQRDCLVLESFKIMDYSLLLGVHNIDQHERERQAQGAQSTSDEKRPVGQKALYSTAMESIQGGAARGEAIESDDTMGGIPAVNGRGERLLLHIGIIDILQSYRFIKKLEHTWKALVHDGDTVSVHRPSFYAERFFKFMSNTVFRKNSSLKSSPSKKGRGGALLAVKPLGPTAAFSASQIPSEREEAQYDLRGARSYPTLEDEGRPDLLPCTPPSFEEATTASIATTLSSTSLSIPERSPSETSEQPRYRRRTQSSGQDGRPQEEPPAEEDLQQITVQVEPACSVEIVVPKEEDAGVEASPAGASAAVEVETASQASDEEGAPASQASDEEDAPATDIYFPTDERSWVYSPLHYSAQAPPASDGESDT

Row | Compound | PIP5K1C % control at 1000nM / DiscoverX PoC value (PIP5K1C) [% control] | kinase binding, percent of control at 1 µM (TAOK3; read-out: TAOK3 % control at 1000nM) [%] | TAOK2 % control at 1000nM / DiscoverX PoC value (TAOK2) [% control] | TAOK3 % control at 1000nM (TAOK3) [% control]
1 | CC(C)(O)C#Cc1ccc2[nH]c3c(c2c1)-c1nc(N)ncc1CCC3 [AMG28, reference compound] | 3.1 | 1.8 | 3.5 | 
2 | CC(C)(O)C#Cc1ccc2[nH]cc(-c3ccnc(N)n3)c2c1 [Compound 3] | 0.4 |  | 1.3 | 0.4
3 | CC(C)(O)C#Cc1ccc2[nH]c3c(c2c1)-c1nc(N)ncc1CC3 [Compound 1] | 0.5 |  | 1.5 | 1.5
